Experimental data from ChEMBL document CHEMBL1135081, “Insertion of 2-carboxysuccinate and tricarballylic acid fragments into cyclic-pseudopeptides: new antagonists for the human tachykinin NK-2 receptor” (Bioorg Med Chem Lett, 2002).

Assays:
Substance-K receptor [1] = biological target: T1, Substance-K receptor (Oryctolagus cuniculus, UniProt P79218); assay: In vitro functional activity towards Neurokinin NK2 receptor on isolated rabbit urinary bladder (RUB); settings: for Kb: read-out: pA2 (converted)
T1 sequence (P79218 whole entry): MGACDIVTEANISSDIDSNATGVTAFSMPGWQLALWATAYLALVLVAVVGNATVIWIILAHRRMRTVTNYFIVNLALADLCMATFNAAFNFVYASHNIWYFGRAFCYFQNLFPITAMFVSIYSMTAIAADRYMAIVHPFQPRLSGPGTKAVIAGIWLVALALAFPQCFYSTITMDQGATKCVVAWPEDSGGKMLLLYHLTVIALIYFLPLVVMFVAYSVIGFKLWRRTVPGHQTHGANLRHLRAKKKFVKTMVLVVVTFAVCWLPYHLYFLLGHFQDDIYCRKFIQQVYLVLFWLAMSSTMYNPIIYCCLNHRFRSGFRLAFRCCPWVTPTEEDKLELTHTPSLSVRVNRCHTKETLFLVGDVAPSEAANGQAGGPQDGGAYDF

Substance-K receptor [2] = biological target: T2, Substance-K receptor (Homo sapiens, UniProt P21452); assay: Displacement of [125I]NKA from human Tachykinin receptor 2 expressed in CHO cells; format: cell-based
T2 sequence (P21452 whole entry): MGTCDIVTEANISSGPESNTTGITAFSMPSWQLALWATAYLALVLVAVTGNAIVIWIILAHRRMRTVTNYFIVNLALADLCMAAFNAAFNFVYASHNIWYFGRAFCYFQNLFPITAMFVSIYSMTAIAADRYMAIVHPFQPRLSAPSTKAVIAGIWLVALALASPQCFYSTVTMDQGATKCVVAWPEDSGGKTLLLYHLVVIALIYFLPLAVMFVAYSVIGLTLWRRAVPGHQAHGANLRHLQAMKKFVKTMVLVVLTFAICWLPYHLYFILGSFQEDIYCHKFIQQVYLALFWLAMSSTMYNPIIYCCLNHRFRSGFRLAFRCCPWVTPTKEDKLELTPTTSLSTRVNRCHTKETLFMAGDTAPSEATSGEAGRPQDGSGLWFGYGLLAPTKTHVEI

Row | pA2 (Substance-K receptor [1]) | Ki (Substance-K receptor [2]) [nM] | Kb (Substance-K receptor [1]) [nM] | Structure (SMILES)
1 | 9.1 | 0.316 | – | O=C1CC(C(=O)N2CCC(N3CCCCC3)CC2)C(=O)NCC(Cc2ccccc2)NC(=O)C(Cc2ccccc2)NC(=O)[C@H](Cc2c[nH]c3ccccc23)N1 (single isomer, unassigned; 8f)
2 | – | 6.31 | 7.94 | CC(=O)NC1C(NC(=O)C[C@H]2CC(=O)N[C@@H](Cc3c[nH]c4ccccc34)C(=O)N[C@H](Cc3ccccc3)C(=O)N[C@H](Cc3ccccc3)CNC2=O)OC(CO)C(O)C1O (some centres not stated)
3 | – | 3.98 | 3.16 | O=C1CC(C(=O)NC(CO)CO)C(=O)NCC(Cc2ccccc2)NC(=O)C(Cc2ccccc2)NC(=O)[C@H](Cc2c[nH]c3ccccc23)N1 (single isomer, unassigned)
4 | – | 6.31 | 3.16 | CN(C)CCNC(=O)C[C@@H]1CC(=O)N[C@@H](Cc2c[nH]c3ccccc23)C(=O)N[C@H](Cc2ccccc2)C(=O)N[C@H](Cc2ccccc2)CNC1=O
5 | – | 1.58 | 1 | O=C1CC(C(=O)N2CCN(CCOCCO)CC2)C(=O)NC[C@@H](Cc2ccccc2)NC(=O)[C@@H](Cc2ccccc2)NC(=O)[C@H](Cc2c[nH]c3ccccc23)N1 (some centres not stated)
6 | – | 0.126 | 0.631 | O=C1CC(C(=O)N2CCOCC2)C(=O)NCC(Cc2ccccc2)NC(=O)C(Cc2ccccc2)NC(=O)[C@H](Cc2c[nH]c3ccccc23)N1 (single isomer, unassigned)
7 | – | 7.94 | 6.31 | CC(=O)NC1C(NC(=O)C[C@@H]2CC(=O)N[C@@H](Cc3c[nH]c4ccccc34)C(=O)N[C@H](Cc3ccccc3)C(=O)N[C@H](Cc3ccccc3)CNC2=O)OC(CO)C(O)C1O (some centres not stated)
8 | – | 1.58 | 2.51 | O=C1C[C@@H](CC(=O)N2CCC(N3CCCCC3)CC2)C(=O)NC[C@@H](Cc2ccccc2)NC(=O)[C@@H](Cc2ccccc2)NC(=O)[C@H](Cc2c[nH]c3ccccc23)N1
9 | – | 0.631 | 1 | O=C1C[C@@H](CC(=O)N2CCOCC2)C(=O)NCC(Cc2ccccc2)NC(=O)C(Cc2ccccc2)NC(=O)[C@H](Cc2c[nH]c3ccccc23)N1 (single isomer, unassigned)
10 | – | 10 | 6.31 | O=C(C[C@@H]1CC(=O)N[C@@H](Cc2c[nH]c3ccccc23)C(=O)NC(Cc2ccccc2)C(=O)NC(Cc2ccccc2)CNC1=O)NC1OC(CO)C(O)C(O)C1O (single isomer, unassigned)
11 | – | 5.01 | 3.98 | O=C1C[C@H](CC(=O)N2CCC(N3CCCCC3)CC2)C(=O)NC[C@@H](Cc2ccccc2)NC(=O)[C@@H](Cc2ccccc2)NC(=O)[C@H](Cc2c[nH]c3ccccc23)N1
12 | – | 2.51 | 3.98 | CC(=O)NC1C(NC(=O)C2CC(=O)N[C@@H](Cc3c[nH]c4ccccc34)C(=O)N[C@H](Cc3ccccc3)C(=O)N[C@H](Cc3ccccc3)CNC2=O)OC(CO)C(O)C1O (some centres not stated)
13 | – | 0.0501 | 0.794 | O=C1CC(C(=O)N2CCC(N3CCCCC3)CC2)C(=O)NCC(Cc2ccccc2)NC(=O)C(Cc2ccccc2)NC(=O)[C@H](Cc2c[nH]c3ccccc23)N1 (single isomer, unassigned; 8e)
14 | – | – | 5.01 | O=C1CCC(=O)N[C@@H](Cc2c[nH]c3ccccc23)C(=O)NC(Cc2ccccc2)C(=O)N[C@H](Cc2ccccc2)CN1 (single isomer, unassigned)
